Where “and” joins values, the source holds several entries; their conditions need not be identical. Equal values may be shown once.

The source of these data is PMC10492782, “Exploiting the aggregation propensity of beta-lactamases to design inhibitors that induce enzyme misfolding” (Nature Communications, 2023).

Data set [1] can be described thus: Thioflavin-T aggregation kinetics and electron microscopy of peptide. Format: physicochemical. The note with it: 50 μM peptide with polyphosphate; EM after 24 h incubation at RT. On the procedure: Fig. 4 Aggregation kinetics of TEM and SHV proteins and peptides. A Measurements of the hydrodynamic radius by Dynamic Light Scattering of 50 μM TEM3.2 in buffer alone, or in the presence of LPS or polyphosphate (PolyP). […] C Transmission Electron Micrograph of 50 μM TEM 3.2 incubated for 24 h in the same buffer as A with polyP, negatively stained with 2% (w/v) uranyl acetate. A single representative image is shown. […] Three replicates are shown for each condition. E Aggregation kinetics using pFTAA fluorescence emission of recombinantly purified TEM-1, in the presence of vehicle, or TEM 3.2 peptin, as well as peptin-only control. F Similar as in E, but using an off-target Pept-In, based on an APR sequence of beta-galactosidase. G Similar to E, but now using a previously published off-target Pept-In, based on an APR of HcaB. The plots are the results of a single experiment, all replicates are shown. Source data are provided as a Source Data file.
A DynaPro DLS plate reader instrument (Wyatt, Santa Barbara, CA, USA) equipped with an 830 nm laser source was used to determine the hydrodynamic radius (RH) of the peptide particles. […] The autocorrelation of scattered light intensity at a 32° angle was recorded for 5 s and averaged over 20 recordings to obtain a single data point. […]

Data set [2] has as its system uro-pathogenic E. coli strain (UPEC strain blaTEM-1). The experiment in a line: Urinary tract infection model, bacterial load in bladder, kidney, ureter. The note with it: each column one mouse. Further details: bacterial load, Ureters / bacterial load, Bladder / bacterial load, Kindey: unit: CFU per mL of tissue extract. Format: in vivo, female C57BL/6JAX mice. As to the method: Fig. 7 Evaluation of in vivo use of peptides that induce the aggregation of TEM beta-lactamase. A Lysis of human erythrocytes (hemolysis) was assessed in the presence of the indicated concentrations of TEM3.2 for 2 h at 37 °C, and normalized to the value obtained with 1% of the detergent triton. […] B Cell viability using the CellTiter Blue assay of HeLa cells treated for 24 h with the indicated concentrations TEM 3.2 at 37 °C. […] DAPI (4’,6-diamidino-2-phenylindole) is blue, while CellMask is red. D Experimental workflow of the in vivo model used in this study. E–G Bacterial load of indicated organs of female C57BL/6JAX mice with a urinary tract infection with E. coli strain UZ_TEM104, treated with 30 mg/kg penicillin (oral) as well 10 mg/kg tazobactam (oral) or 10 mg/kg TEM3.2 via the indicated treatment route. IV intravenous, IP intraperitoneal, SC subcutaneously. The data shown is from a single experiment with 12 animals for each group. The result for each animal is shown as a dot. […] The statistically significant differences were determined using ANOVA, followed by Dunnett’s multiple comparison test. […] Source data are provided as a Source Data file.
We also performed a tolerability study using a dose escalation method by administering the peptide at 2, 5, 10, 15, and 20 mg/kg via different parenteral routes: intravenous (IV), intraperitoneal (IP), and subcutaneous (SC) in female C57BL/6JAX mice, aged 8–10 weeks (Suppl Table 4). […] Vehicle alone (0.9% NaCl) was also administered (IV). After 24 h the animals were sacrificed and the bacterial load in the bladder, kidney, and ureter was quantified by determining the number of colony-forming units (CFU) per mL of tissue extract (Fig. 7E–G).
To test the efficacy of the peptides, a urinary tract infection model was performed as described previously. Briefly, female C57BL/6Jax mice female mice were deprived of water for at least 1 h. Then, they were anesthetized by IP administration of the mixture of ketamine (Nimatek)/xylazine (XYL-M 2% BE-V170581). The bladder of the mouse was massaged with fingers and pushed down gently to expel the remaining urine. Mice were slowly inoculated urethrally with 50 µL of a bacterial suspension slowly over 5 s to avoid vesicoureteral reflux (10^8 CFU/ mouse) using a sterile catheter (pediatric intravenous-access cannula (GS391350)). The catheter was removed directly after inoculation. After surgery, the animals were visually monitored for full recovery. After 1 h post inoculation, all mice received Ampicillin (30 mg/kg_PO-orally) and at the same time 3 groups of animals received the peptides via different administration routes (10 mg/kg_IV—intravenous; IP—intraperitoneal or SC—sub-cutaneous) and the positive control groups received tazobactam (10 mg/kg, PO). The negative control groups received vehicle or saline (IV administration). 2 h post inoculation, all mice received a second injection with the same concentration of each treatment as explained above. Twenty-four hours post-infection, mice were sacrificed and organs (kidney, bladder, ureter) were washed with PBS and were homogenized (Thermo Savant FastPrep FP120 Homogenizer/24 s). The homogenized tissues were serially diluted and cultured on blood agar plates. The plates were incubated overnight at 37 °C, and the number of bacteria was measured by CFU value.

Consider Ac-RLTAFLHNRRPRLTAFLRQRR-NH2 [TEM3.2], for which the “Thioflavin T binding and Transmission Electron Microscopy (in words)” value in data set [1] is listed as “amyloid-like aggregation in the presence of polyphosphate”. Moreover, in data set [2] (group IP), the “bacterial load, Bladder” value is 833.333 (2×) and 4533.33 and 14866.7 and 4066.67 and 2533.33 and 900 and 1 (2×) and 37733.3 and 300 (2×); the “bacterial load, Kindey” value was 3566.67 and 133.333 and 27833.3 and 2666.67 and 1 (5×) and 4300 and 1700 and 2600; the “bacterial load, Ureters” value is 6333.33 and 33.3333 and 9933.33 and 233.333 and 1 (5×) and 1166.67 and 133.333 and 2500. Besides, in data set [2] (group IV), the “bacterial load, Bladder” value was 9200 and 1 (3×) and 6366.67 and 4033.33 and 1500 and 566.667 and 2833.33 and 266.667 and 66.6667 and 1833.33; the “bacterial load, Kindey” value is 1333.33 and 50433.3 and 24133.3 and 22233.3 and 400 (2×) and 1 (2×) and 29 and 6466.67 and 333.333 and 1900; the “bacterial load, Ureters” value is 10766.7 and 11733.3 and 2766.67 and 2633.33 and 1 (4×) and 15700 and 9366.67 and 766.667 and 233.333. In data set [2] (group Sub), the “bacterial load, Bladder” value is 20866.7 and 166.667 and 3866.67 and 32100 and 933.333 and 300 and 1 (2×) and 1600 and 1500 and 366.667 and 133.333; the “bacterial load, Kindey” value was 18933.3 and 1 (6×) and 5766.67 and 66.6667 and 3300 and 4300 and 466.667; the “bacterial load, Ureters” value is 5500 and 1 (6×) and 5866.67 and 13433.3 and 2800 and 333.333 and 900.
